Experimental data as given in paper PMC3413639 (PLoS ONE, 2012).

Target: T1, 5-HT1A receptors (Rattus norvegicus, UniProt P19327)
T1 sequence (P19327 1-422): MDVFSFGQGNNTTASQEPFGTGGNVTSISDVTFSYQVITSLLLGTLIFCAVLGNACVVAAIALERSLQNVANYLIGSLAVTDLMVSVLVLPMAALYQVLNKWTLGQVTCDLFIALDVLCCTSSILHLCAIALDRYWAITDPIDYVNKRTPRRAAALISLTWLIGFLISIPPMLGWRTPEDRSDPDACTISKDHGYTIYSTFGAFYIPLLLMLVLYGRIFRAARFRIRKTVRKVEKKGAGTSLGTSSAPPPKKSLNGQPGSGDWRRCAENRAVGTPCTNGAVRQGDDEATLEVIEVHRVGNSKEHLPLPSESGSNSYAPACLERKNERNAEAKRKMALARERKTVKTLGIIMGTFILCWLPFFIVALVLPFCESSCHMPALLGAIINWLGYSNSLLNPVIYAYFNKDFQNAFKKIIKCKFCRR
Test: Autoradiographic [35S]GTPγS binding in rat brain sections
Assay type: biochemical
Parameters: Twenty-micrometer-thick frozen brain sections were preincubated; from tissue; host or cells: rat brain (hippocampus and raphe nucleus): frozen sections or living animals
Settings: raphe nucleus; 10 µM; p<0.01; increment smaller than that by 8-OH-DPAT
Procedure: Autoradiographic procedures were performed as described previously, with some modifications. The sections were preincubated for 15 min in 50 mM 4-(2-hydroxyethyl)-1-piperazineethanesulfonic acid (HEPES; pH 7.4) containing 10 mM NaCl, 3 mM MgCl2 and 0.2 mM ethylene glycol tetraacetic acid. A second preincubation using the same buffer containing 2 mM GDP was performed for 15 min. The sections were subsequently incubated in the same buffer containing 2 mM GDP, 0.2 mM dithiothreitol and 0.04 nM [^35S]GTPγS for 120 min. Basal [^35S]GTPγS binding was defined in the absence of test drugs. […] Nonspecific binding was estimated using 10 µM nonradioactive GTPγS. The incubation was terminated by ice-cold 50 mM HEPES (pH 7.0). The sections were desalted with ice-cold distilled water, dried, and placed in contact with an imaging plate for 2 days. Signal detection and image analysis were performed as described above.

[35S]GTPγS binding compared with 1 µM WAY-100635: significantly increased
SMILES: Cc1nnc(-c2cc3c(OC[C@@H](O)CN4CCC(c5ccc(Cl)c(Cl)c5)CC4)cccc3o2)o1.Cl [Wf-516, (2S)-1-[4-(3,4-dichlorophenyl)piperidin-1-yl]-3-[2-(5-methyl-1,3,4-oxadiazol-2-yl)benzo[b]furan-4-yloxy]propan-2-ol monohydrochloride]
